The source of these data is publication PMC5564531, “Evaluation of radiofluorinated carboximidamides as potential IDO-targeted PET tracers for cancer imaging” (Oncotarget, 2017).

One data set concerns the target T1, Human IDO (Homo sapiens, UniProt P14902).
T1 construct: purchased Enzo Life Sciences (enzolifesciences.com) ALX-201-333-C050
Kind of data set: IDO enzyme inhibition assay (kynurenine formation, absorbance 492 nm). Type of data set: biochemical. The settings on record: recombinant human IDO; mean of n ≥ 3, ± SD. On the procedure:
(§1) The percent inhibition at individual concentrations was determined and the average values of duplicates were obtained. The data was processed using nonlinear regression to generate IC50 values (Prism Graphpad).

The target in data set [1] is T2, IDO1 in IFN-γ stimulated HeLa cells (Homo sapiens, UniProt P14902).
T2 construct: native IDO1 in HeLa cells; endogenous in cells; host or cells: HeLa cells stimulated with human IFN-γ
The experiment in a line: IDO HeLa cells assay (IFN-γ induced IDO activity, kynurenine in supernatant). The format is cell-based. To be noted: IFN-γ 50 ng/mL, 48 h incubation, read-out: Inhibition of IFN-γ induced IDO activity in HeLa cells (IC50). On the procedure:
as §1

Data set [2] relates to IDO1. On the set-up: method as in PMID 20197554, PMID 20124451. To be noted: Phase I dose-escalation trial, generally well-tolerated doses; cited from earlier work.
The conditions of data set [3]: rapid clearance rate; species and reference not given; cited from earlier work.
Data set [4] has as its system IDO1. On the set-up: method as in PMID 19507862. To be noted: in both biochemical and cellular assays; cited from earlier work.
Data set [5] in a line: In vitro stability in mouse serum by radio-TLC. The format is in vitro ADME. The settings on record: 37°C, 3 h. On the procedure: Two-hundred microliter samples were collected at 3 h and analyzed by radio-TLC.
The target of another data set is IDO1 in Hela cells (Homo sapiens, UniProt P14902). Kind of data set: Competitive cell-binding assay of [18F]IDO49 on IFN-γ treated HeLa cells. The settings on record: inhibitors 1-10000 nM, 30 min incubation.
Data set [6] is described as follows: Lipophilicity, shake-flask method (n-octanol/PBS pH 7.4). The format is physicochemical. To be noted: n-octanol/buffer pH 7.4, n=3. The method, then: [^18F]IDO49 (2-30 kBq in 30μL of water) was added to a two-layer system of n-octanol (500 μL) and 0.1 M phosphate buffered saline (PBS) pH 7.4 (500 μL) in an Eppendorf vial. The vessel was vortexed for 3min and then centrifuged at 10,000 rpm for 2 min. An aliquot of each layer (100 μL) was assessed for radioactivity in a wipe counter. The partition coefficient (logD7.4) was calculated as the decimal logarithm of the ratio between the counted radioactivity in the n-octanol layer and the counted radioactivity in the aqueous layer (count of n-octanol sample – count of background) / (count of PBS sample – count of background). CLogP (calculated LogP) values were determined using CHEMBIODRAW ULTRA 12.0 software (Cambridge soft. Perkin-Elmer, Waltham, MA, USA).

A further data set has as its system Hela tumor xenografts. The experiment in a line: MicroPET imaging of HeLa tumor xenografts with rHu IFN-γ treatment. Type of data set: in vivo, mouse. The settings on record: 60 min postinjection, IFN-γ treated HeLa tumor bearing mice, p < 0.05. On the procedure:
Female athymic C57BL/6 nude mice (4-6 weeks old) were ordered from Charles River Laboratories (Stone Ridge, NY, U.S.A.) and housed in a temperature and humidity controlled room. After 7 to 14 days of acclimatization, a total of 5 ×10^6 Hela cells were inoculated subcutaneously in 200 μL serum-free medium into the right flank of hind leg. Once tumors reached an appropriate size (3-4 mm in diameter) the mice were randomized into 5 groups (4/group). Then the mice in each group were randomized into two subgroups (rHu IFN- γ treatment or no rHu IFN- γ treatment). All the rHu IFN- γ treatment mice were injected i.p. of 1.5×10^5 U rHu IFN- γ /mouse/day. Group one mice were anesthetized by gas inhalation (2% vol/vol isoflurane in oxygen) 24 h later. Then the mice were euthanized and tumor tissues were dissected for further IDO1 western blotting and IHC. The same operation was repeated at 48h, 72h, 96h and 120h points.
In order to evaluate the in vivo imaging performance of [^18F]IDO49 to IDO1 tumors, microPET imaging was performed on nude mice bearing Hela tumor xenografts with and without rHu IFN- γ treatment treatment using the Inveon small-animal PET/CT scanner (Siemens). Anesthesia was induced with 4− 5% isoflurane and maintained with 1− 3% isofluorane delivered with a mixed air/oxygen through a closed nose cone throughout the PET imaging session. […]

In data set [7] the test system is Hela, PANC02, HCT116, and 4T1 cells. Kind of data set: HeLa cell uptake of radioligands. The format is cell-based. On the procedure: HeLa cells were seeded in a 24 well culture plate at a density of 2 × 10^4 per well in 400 μL culture media w/ FBS (n=3). After overnight incubation (16 h), human IFN-γ (25ng/well, 50 ng/mL final concentration) in 100 μL DMEM with FBS were added into cells. The cells were rinsed with phosphate-buffered saline (PBS), 500 μL of Earle's Minimum Essential Medium (EMEM) (ATCC 30-2003), and 10 % fetal bovine serum was added to the culture wells. […] At each given time point, the cell supernatants were discarded and cells were washed 3 times with PBS (0.5 mL).

The structures appear in SMILES notation.

Chain of IDO1 in Hela cells (P14902 whole entry): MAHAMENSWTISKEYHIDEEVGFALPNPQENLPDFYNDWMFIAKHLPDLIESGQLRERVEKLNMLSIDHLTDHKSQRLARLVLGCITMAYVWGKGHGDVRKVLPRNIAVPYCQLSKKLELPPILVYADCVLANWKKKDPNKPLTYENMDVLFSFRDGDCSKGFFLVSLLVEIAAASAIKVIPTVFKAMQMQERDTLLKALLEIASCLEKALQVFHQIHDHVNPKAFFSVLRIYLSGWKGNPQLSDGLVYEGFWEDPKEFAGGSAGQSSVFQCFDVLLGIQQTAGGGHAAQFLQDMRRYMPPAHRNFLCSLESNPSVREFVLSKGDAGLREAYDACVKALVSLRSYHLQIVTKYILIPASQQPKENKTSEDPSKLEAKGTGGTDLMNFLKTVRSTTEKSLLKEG
T2 sequence (P14902 whole entry): as above
T1 sequence (P14902 whole entry): as above

Consider `ON=C(Nc1ccc(F)c(Cl)c1)c1nonc1NCCF` [IDO49, N-(3-chloro-4-fluorophenyl)-4-((2-fluoroethyl)amino)-N'-hydroxy-1,2,5-oxadiazole-3-carboximidamide], for which the figures for the IC50 (on Human IDO; in [1]) were 95.5 ± 10.4 nM and 11.9 nM, respectively.

Take `NS(=O)(=O)NCCNc1nonc1C(=NO)Nc1ccc(F)c(Br)c1` [INCB024360]: in the data set on IDO1 [2], the “inhibition of IDO1 activity” value was “greater than 90%”. Also, in [3], the “t1/2 (clearance rate)” value is < 30 min. Moreover, the IC50 – broadly, the concentration that inhibits the measured activity by half – in the data set on IDO1 [4] is […].

In the case of `ON=C(Nc1ccc(F)c(Cl)c1)c1nonc1NCC[18F]` [[^18F]IDO49], the “radioactivity in the intact radioligand” value in data set [5] was > 95%. Moreover, on IDO1 in Hela cells, the “[18F]IDO49 uptake in Hela cells when co-incubated with NLG919 and INCB024360” value was “decreased in a dose-dependent manner”. The logD in data set [6] (n-octanol/PBS, read-out: logD7.4) was determined as 1.37 ± 0.02. For the same compound, in the data set with Hela tumor xenografts, the “tumor to muscle (T/M) uptake ratio, peak” value came to 2.29 ± 0.05.

Consider `Nc1nonc1/C(=N/O)Nc1ccc([18F])c(Cl)c1` [[^18F]IDO5L], for which the “radioactivity in the intact radioligand” value in [5] is on record as > 95%. This compound returned a logD7.4 in data set [6] of 2.13 ± 0.11. In addition, in [7] (Hela, PANC02, HCT116 and 4T1 cells, assayed at 30, 60, 120 mins, n=3), the “time of peak cellular uptake” value is 60 min.

`Cn1cc(C[C@H](N)C(=O)O)c2ccccc21` [1-L-MT, reference compound]: the “effect on uptake of [18F]IDO5L by HeLa at 120 min” value in data set [7] (1000 μM 1-L-MT, n=4) is given as “strong inhibition”.
